# Results reported in the CheMixHub viscosity set.
# “And” between values parts separate entries of the source, which are not always exact repeats. Equal values may be shown once. ± gives the uncertainty stated by the source.
# Test: xn = mol fraction of the nth substance listed
structure (smiles),measurement,setting,value
O=C[C@H](O)[C@@H](O)[C@H](O)CO + O,viscosity,"293.15 K, 101 kPa, x1 = 0.0031",1.053 ± 0.013 mPa·s
same,viscosity,"293.15 K, 101 kPa, x1 = 0.006",1.118 ± 0.024 mPa·s and 1.118 ± 0.014 mPa·s (2×)
same,viscosity,"293.15 K, 101 kPa, x1 = 0.0063",1.118 ± 0.014 mPa·s
same,viscosity,"293.15 K, 101 kPa, x1 = 0.013",1.229 ± 0.026 mPa·s and 1.229 ± 0.015 mPa·s and 1.229 ± 0.016 mPa·s
same,viscosity,"298.15 K, 101 kPa, x1 = 0.000546",0.9164 ± 0.013 mPa·s
same,viscosity,"298.15 K, 101 kPa, x1 = 0.0009",0.9244 ± 0.013 mPa·s
same,viscosity,"298.15 K, 101 kPa, x1 = 0.00124",0.9306 ± 0.013 mPa·s
same,viscosity,"298.15 K, 101 kPa, x1 = 0.006",0.9937 ± 0.021 mPa·s and 0.9937 ± 0.012 mPa·s and 0.9937 ± 0.013 mPa·s
same,viscosity,"298.15 K, 101 kPa, x1 = 0.0063",0.9937 ± 0.013 mPa·s
same,viscosity,"303.15 K, 101 kPa, x1 = 0.0031",0.8381 ± 0.01 mPa·s
same,viscosity,"303.15 K, 101 kPa, x1 = 0.006",0.8889 ± 0.019 mPa·s and 0.8889 ± 0.011 mPa·s (2×)
same,viscosity,"303.15 K, 101 kPa, x1 = 0.0063",0.8889 ± 0.011 mPa·s
same,viscosity,"303.15 K, 101 kPa, x1 = 0.013",0.986 ± 0.021 mPa·s and 0.986 ± 0.012 mPa·s and 0.986 ± 0.013 mPa·s
same,viscosity,"308.15 K, 101 kPa, x1 = 0.0031",0.7529 ± 0.0094 mPa·s
same,viscosity,"308.15 K, 101 kPa, x1 = 0.006",0.7916 ± 0.017 mPa·s and 0.7916 ± 0.0098 mPa·s and 0.7916 ± 0.01 mPa·s
same,viscosity,"308.15 K, 101 kPa, x1 = 0.0063",0.7916 ± 0.0099 mPa·s
same,viscosity,"308.15 K, 101 kPa, x1 = 0.013",0.8843 ± 0.019 mPa·s and 0.8843 ± 0.011 mPa·s (2×)
same,viscosity,"313.15 K, 101 kPa, x1 = 0.0031",0.683 ± 0.0085 mPa·s
same,viscosity,"313.15 K, 101 kPa, x1 = 0.006",0.7163 ± 0.015 mPa·s and 0.7163 ± 0.0088 mPa·s and 0.7163 ± 0.0091 mPa·s
same,viscosity,"313.15 K, 101 kPa, x1 = 0.0063",0.7163 ± 0.009 mPa·s
same,viscosity,"313.15 K, 101 kPa, x1 = 0.013",0.798 ± 0.017 mPa·s and 0.798 ± 0.0099 mPa·s and 0.798 ± 0.01 mPa·s
same,viscosity,"318.15 K, 101 kPa, x1 = 0.006",0.6565 ± 0.014 mPa·s and 0.6565 ± 0.0081 mPa·s and 0.6565 ± 0.0084 mPa·s
same,viscosity,"318.15 K, 101 kPa, x1 = 0.0063",0.6565 ± 0.0082 mPa·s
same,viscosity,"318.15 K, 101 kPa, x1 = 0.013",0.7216 ± 0.015 mPa·s and 0.7216 ± 0.0089 mPa·s and 0.7216 ± 0.0092 mPa·s
OCC(F)(F)F + O,viscosity,"298 K, 101.3 kPa, x1 = 0.026",1.152 ± 0.031 mPa·s
same,viscosity,"298 K, 101.3 kPa, x1 = 0.0503",1.358 ± 0.035 mPa·s
same,viscosity,"298 K, 101.3 kPa, x1 = 0.075",1.528 ± 0.038 mPa·s
same,viscosity,"298 K, 101.3 kPa, x1 = 0.0984",1.634 ± 0.04 mPa·s
same,viscosity,"298 K, 101.3 kPa, x1 = 0.1984",1.882 ± 0.042 mPa·s
same,viscosity,"298 K, 101.3 kPa, x1 = 0.3016",1.876 ± 0.038 mPa·s
same,viscosity,"298 K, 101.3 kPa, x1 = 0.4012",1.819 ± 0.034 mPa·s
same,viscosity,"298 K, 101.3 kPa, x1 = 0.5015",1.757 ± 0.03 mPa·s
same,viscosity,"298 K, 101.3 kPa, x1 = 0.5993",1.713 ± 0.026 mPa·s
same,viscosity,"298 K, 101.3 kPa, x1 = 0.6501",1.656 ± 0.024 mPa·s
same,viscosity,"298 K, 101.3 kPa, x1 = 0.8029",1.651 ± 0.02 mPa·s
same,viscosity,"298 K, 101.3 kPa, x1 = 0.9024",1.673 ± 0.018 mPa·s
same,viscosity,"298.15 K, 100 kPa, x1 = 0.1022",1.608 ± 0.05 mPa·s
same,viscosity,"298.15 K, 100 kPa, x1 = 0.2084",1.828 ± 0.054 mPa·s
same,viscosity,"298.15 K, 100 kPa, x1 = 0.3227",1.802 ± 0.05 mPa·s
same,viscosity,"298.15 K, 100 kPa, x1 = 0.4087",1.743 ± 0.046 mPa·s
same,viscosity,"298.15 K, 100 kPa, x1 = 0.5727",1.665 ± 0.041 mPa·s
same,viscosity,"298.15 K, 100 kPa, x1 = 0.7111",1.621 ± 0.038 mPa·s
same,viscosity,"298.15 K, 100 kPa, x1 = 0.9104",1.64 ± 0.036 mPa·s
same,viscosity,"298.15 K, 101 kPa, x1 = 0.0196",1.061 ± 0.009 mPa·s
same,viscosity,"298.15 K, 101 kPa, x1 = 0.04313",1.271 ± 0.012 mPa·s
same,viscosity,"298.15 K, 101 kPa, x1 = 0.07168",1.446 ± 0.016 mPa·s
same,viscosity,"298.15 K, 101 kPa, x1 = 0.1072",1.642 ± 0.021 mPa·s
same,viscosity,"298.15 K, 101 kPa, x1 = 0.1525",1.773 ± 0.026 mPa·s
same,viscosity,"298.15 K, 101 kPa, x1 = 0.2128",1.852 ± 0.031 mPa·s
same,viscosity,"298.15 K, 101 kPa, x1 = 0.296",1.865 ± 0.036 mPa·s
same,viscosity,"298.15 K, 101 kPa, x1 = 0.4193",1.782 ± 0.038 mPa·s
same,viscosity,"298.15 K, 101 kPa, x1 = 0.6192",1.667 ± 0.04 mPa·s
same,viscosity,"303 K, 101.3 kPa, x1 = 0.026",0.999 ± 0.027 mPa·s
same,viscosity,"303 K, 101.3 kPa, x1 = 0.0503",1.163 ± 0.03 mPa·s
same,viscosity,"303 K, 101.3 kPa, x1 = 0.075",1.312 ± 0.033 mPa·s
same,viscosity,"303 K, 101.3 kPa, x1 = 0.0984",1.395 ± 0.035 mPa·s
same,viscosity,"303 K, 101.3 kPa, x1 = 0.1984",1.588 ± 0.036 mPa·s
same,viscosity,"303 K, 101.3 kPa, x1 = 0.3016",1.609 ± 0.033 mPa·s
same,viscosity,"303 K, 101.3 kPa, x1 = 0.4012",1.566 ± 0.03 mPa·s
same,viscosity,"303 K, 101.3 kPa, x1 = 0.5015",1.523 ± 0.026 mPa·s
same,viscosity,"303 K, 101.3 kPa, x1 = 0.5993",1.492 ± 0.023 mPa·s
same,viscosity,"303 K, 101.3 kPa, x1 = 0.6501",1.45 ± 0.022 mPa·s
same,viscosity,"303 K, 101.3 kPa, x1 = 0.8029",1.444 ± 0.018 mPa·s
same,viscosity,"303 K, 101.3 kPa, x1 = 0.9024",1.468 ± 0.016 mPa·s
same,viscosity,"308 K, 101.3 kPa, x1 = 0.026",0.887 ± 0.024 mPa·s
same,viscosity,"308 K, 101.3 kPa, x1 = 0.0503",1.017 ± 0.027 mPa·s
same,viscosity,"308 K, 101.3 kPa, x1 = 0.075",1.138 ± 0.029 mPa·s
same,viscosity,"308 K, 101.3 kPa, x1 = 0.0984",1.214 ± 0.03 mPa·s
same,viscosity,"308 K, 101.3 kPa, x1 = 0.1984",1.398 ± 0.032 mPa·s
same,viscosity,"308 K, 101.3 kPa, x1 = 0.3016",1.406 ± 0.03 mPa·s
same,viscosity,"308 K, 101.3 kPa, x1 = 0.4012",1.375 ± 0.027 mPa·s
same,viscosity,"308 K, 101.3 kPa, x1 = 0.5015",1.338 ± 0.024 mPa·s
same,viscosity,"308 K, 101.3 kPa, x1 = 0.5993",1.305 ± 0.021 mPa·s
same,viscosity,"308 K, 101.3 kPa, x1 = 0.6501",1.284 ± 0.02 mPa·s
same,viscosity,"308 K, 101.3 kPa, x1 = 0.8029",1.278 ± 0.017 mPa·s
same,viscosity,"308 K, 101.3 kPa, x1 = 0.9024",1.296 ± 0.015 mPa·s
same,viscosity,"313 K, 101.3 kPa, x1 = 0.026",0.791 ± 0.022 mPa·s
same,viscosity,"313 K, 101.3 kPa, x1 = 0.0503",0.899 ± 0.024 mPa·s
same,viscosity,"313 K, 101.3 kPa, x1 = 0.075",1.002 ± 0.026 mPa·s
same,viscosity,"313 K, 101.3 kPa, x1 = 0.0984",1.065 ± 0.027 mPa·s
same,viscosity,"313 K, 101.3 kPa, x1 = 0.1984",1.223 ± 0.028 mPa·s
same,viscosity,"313 K, 101.3 kPa, x1 = 0.3016",1.235 ± 0.026 mPa·s
same,viscosity,"313 K, 101.3 kPa, x1 = 0.4012",1.211 ± 0.024 mPa·s
same,viscosity,"313 K, 101.3 kPa, x1 = 0.5015",1.179 ± 0.021 mPa·s
same,viscosity,"313 K, 101.3 kPa, x1 = 0.5993",1.159 ± 0.019 mPa·s
same,viscosity,"313 K, 101.3 kPa, x1 = 0.6501",1.145 ± 0.018 mPa·s
same,viscosity,"313 K, 101.3 kPa, x1 = 0.8029",1.136 ± 0.016 mPa·s
same,viscosity,"313 K, 101.3 kPa, x1 = 0.9024",1.152 ± 0.014 mPa·s
same,viscosity,"323.15 K, 100 kPa, x1 = 0.1022",0.85 ± 0.027 mPa·s
same,viscosity,"323.15 K, 100 kPa, x1 = 0.2084",0.944 ± 0.028 mPa·s
same,viscosity,"323.15 K, 100 kPa, x1 = 0.3227",0.949 ± 0.027 mPa·s
same,viscosity,"323.15 K, 100 kPa, x1 = 0.4087",0.94 ± 0.025 mPa·s
same,viscosity,"323.15 K, 100 kPa, x1 = 0.5727",0.911 ± 0.023 mPa·s
same,viscosity,"323.15 K, 100 kPa, x1 = 0.7111",0.912 ± 0.022 mPa·s
same,viscosity,"323.15 K, 100 kPa, x1 = 0.9104",0.935 ± 0.021 mPa·s
[Br-].[NH4+] + O,viscosity,"298.15 K, 101 kPa, x1 = 0.0089",0.8738 mPa·s
same,viscosity,"298.15 K, 101 kPa, x1 = 0.0177",0.8563 mPa·s
same,viscosity,"298.15 K, 101 kPa, x1 = 0.0348",0.8265 mPa·s
